What was measured:
PARP1 [1] = molecular target: T1, PARP1 (Homo sapiens, UniProt P09874); test: PARP1 activity, commercial assay (Trevigen), histone-coated wells with active PARP1 enzyme and NAD+; assay type: biochemical; details: active PARP1 enzyme; triplicate; FIG. 4
Method: The capacity to inhibit PARP1 was determined using a commercial assay (Trevigen, Gaithersburg, Md.) as per manufacturer's direction.

[2] = test system: rat primary cortical neurons; test: Cytotoxicity in rat primary cortical neurons, LDH release at 24 h; details: for concentration at which neurotoxicity (defined as >10% cell death) was seen: n=6/group
Method: Cytotoxicity was assessed by LDH release from dying neurons at 24 h.

[3] = Mitochondrial enrichment: LC-MS quantification in mitochondria- and nuclear-enriched fractions of neurons; assay type: in vitro ADME, rat; details: neurons exposed to 100 nM for 24 h; mean±SD; n=3
Method: Water (150 μL) was added and the solution was vortexed (15 sec) and set aside to equilibrate at room temperature (30 min). The resulting suspension was placed in an Eppendorf Centrifuge 5702 (4400 rpm, 20° C.) for 12 min. The organic layer was extracted and filtered through a 0.45 μm filter for analysis.
The concentration was reported as pM concentration of XJB-Veliparib per 10 μg of protein with corresponding standard deviation values.
To verify mitochondrial enrichment, rat primary cortical neurons were exposed to 100 nM XJB-veliparib for 24 h. Mitochondria- and nuclear-enriched subcellular fractions were obtained and verified by western blot using antibodies against the cytochrome oxidase subunit Vα (COX Vα) and histone H3, respectively (FIG. 6A). In mitochondria-enriched fractions, the LCMS analysis of XJB-veliparib indicated a concentration of 116±55 pmol/10 μg protein compared with 29±27 pmol/10 μg protein in nuclear-enriched fractions (FIG. 6B; mean±standard deviation [SD]; n=3 independent experiments).

PARP1 [4] = molecular target: T1, PARP1; test: PARP1 inhibitory capacity of mitochondria-enriched fractions spiked with active PARP1 enzyme; assay type: biochemical; details: triplicate
primary cortical neurons [5] = test: Oxygen-glucose deprivation (OGD) in primary cortical neurons, LDH release; assay type: cell-based, rat
Method: (§1) To model ischemia-reperfusion in vitro, culture medium was replaced with a pre-equilibrated low glucose (0.5 mM) medium. Neurons were transferred into a sealed hypoxic chamber (Coy Laboratory Products Inc., Grass Lake, Mich.) set to an atmosphere of 95% N2 with 5% CO2 at 37° C. for 2 h. After OGD neurons were removed from the chamber and returned to the incubator.
To determine whether mitochondria-targeting XJB-veliparib can promote neuronal survival in ischemia-like conditions in vitro, primary cortical neurons at 12 DIV were subjected to OGD. Cultured neurons were exposed to a hypoxic and glucose-depleted environment for 2 h, followed by normal culture conditions for 24 h to mimic ischemia/reperfusion injury. […] Specifically, 10 nM XJB-veliparib reduced cell death by 67% (LDH release 12.4±3.1% vs. 38.0±2.5%, 10 nM XJB-veliparib vs. vehicle; mean±SD; P<0.05).

HT22 cells = test: Glutamate-induced ferroptotic cell death in HT22 cells, LDH release; assay type: cell-based, mouse; details: 5 mM glutamate; for effect on glutamate-induced ferroptosis: LDH release at 24 h
Method: HT22 cells were cultured at 37° C. in Dulbecco's modified Eagle's medium (DMEM) (Invitrogen Inc., Carlsbad, Calif.) supplemented with 10% fetal bovine serum (FBS) (Thermo Fisher Scientific, San Jose, Calif.) and 1% penicillin-streptomycin (ATCC, Manassas, Va.) in an atmosphere containing 5% CO2. Cells were cultured for 24 to 48 hr before use.

primary cortical neurons [6] = test: Mitochondrial and cytosolic NAD+ concentration in primary cortical neurons after OGD; assay type: cell-based, rat; details: for mitochondrial NAD+ stores after OGD: 10 nM before OGD, measured 24 h after OGD
Method: FIG. 8. Mitochondrial and cytosolic NAD^+ concentration in primary cortical neurons after OGD. […] NAD+ concentration measured 24 h after OGD. Assay performed in duplicate.
as §1

primary cortical neurons [7] = test: Cellular localization of poly(ADP-ribose) polymers after OGD (immunofluorescence, confocal and STED microscopy); assay type: cell-based, rat; details: 10 nM, OGD 2 h; for PAR immunofluorescence after OGD (confocal): triplicate
Method: Neurons grown on poly-D-lysine coated glass coverslips were fixed in 2% paraformaldehyde and permeabilized with TritonX-100. Coverslips were then incubated in a 1:200 dilution of mouse monoclonal antibody against PAR (SA216, ENzo Life Sciences, Inc., Farmingdale, N.Y.) and an antibody against TOMM20 (Abcam, Cambridge, Mass.) followed by incubation in the appropriate secondary antibodies. Cell nuclei were labelled with 4′,6 diamidino-2-phenylindole (DAPI) for standard confocal microscopy or DRAQ5 (both from ThermoFisher Scientific, Waltham, Mass.) for STED microscopy. Images were collected using an Olympus Fluoview 1000 confocal microscope (Olympus Corporation of the Americas, Center Valley, Pa.).
For STED imaging a Leica TCS SP8 super resolution STED microscope with a pulsed white light laser and AOBS detection system was used (Leica Microsystems, Wetzlar, Germany). Images were collected using the 775 nm STED laser line with 30% 3D STED using the Leica STED WHITE oil objective lens (HC PL APO 100×/1.40 OIL) with a 200 Hz scan speed and 2× line averaging. Pixel size was set to 45 nm/pixel, step size was set to […], and pinhole was set at 132.8 μm (0.875 AU). TOMM20 was visualized using Alexa Fluor 555, exciting at 553 nm and detecting between 558-599 nm and temporally gate between […]. PAR was visualized with Alexa Fluor 594, exciting at 598 nm and detecting between 603-666 nm and temporally gated between 0.3-6.0 nsec. DRAQ5 (ThermoFisher Scientific, Waltham, Mass.) was excited at 662 and detected between 667 to 780 nm and temporally gated between 0.3-6.0 nsec. Channels were collected between stacks, sequentially.
The cellular localization of poly(ADP-ribose) (PAR) polymers, a footprint of PARP activation, was examined in primary cortical neurons after OGD using immunohistochemistry and confocal microscopy.
To evaluate the impact of XJB-veliparib on mitochondrial structure after OGD, we used stimulation emission depletion (STED) microscopy and immunohistochemistry. Primary rat cortical neurons were treated with 10 nM XJB-veliparib or vehicle and then exposed to OGD for 2 h.

[8] = test system: mouse embryo fibroblasts (MEF); test: IR-induced cell death in mouse embryo fibroblasts, Annexin V/PI flow cytometry; assay type: cell-based; details: for survival after IR: 10, 20 μM for 30 min prior to 10 Gy IR, survival at 48 h, mean±SD, vehicle 68.4%±2.2
Method: MEF cells were treated with 10, 20 μM XJB-veliparib for 30 min prior to 10 Gy IR (309 R/min, Cs137 source), media was changed to drugless media 4 h post-IR. Survival was assessed at 48 h by Annexin V-FTIC/PI flow cytometry. […] Mean±SD, *p<0.05, ****p<0.0001.

[9] = test system: mouse embryo fibroblasts (MEF); test: γ-irradiation-induced mitochondrial DNA damage in MEFs (qPCR); assay type: cell-based; details: 20 μM for 30 min prior to 10 Gy IR
Method: PARylation of mtDNA repair enzymes, polymerase-γ and exo/endonucleaseG, by mt-PARP1 is thought interfere with normal mtDNA repair. […] Cells were harvested and DNA extracted 4 and 24 h post-IR. […] ANOVA, *p<0.05, **p<0.01.

T1 sequence (P09874 whole entry): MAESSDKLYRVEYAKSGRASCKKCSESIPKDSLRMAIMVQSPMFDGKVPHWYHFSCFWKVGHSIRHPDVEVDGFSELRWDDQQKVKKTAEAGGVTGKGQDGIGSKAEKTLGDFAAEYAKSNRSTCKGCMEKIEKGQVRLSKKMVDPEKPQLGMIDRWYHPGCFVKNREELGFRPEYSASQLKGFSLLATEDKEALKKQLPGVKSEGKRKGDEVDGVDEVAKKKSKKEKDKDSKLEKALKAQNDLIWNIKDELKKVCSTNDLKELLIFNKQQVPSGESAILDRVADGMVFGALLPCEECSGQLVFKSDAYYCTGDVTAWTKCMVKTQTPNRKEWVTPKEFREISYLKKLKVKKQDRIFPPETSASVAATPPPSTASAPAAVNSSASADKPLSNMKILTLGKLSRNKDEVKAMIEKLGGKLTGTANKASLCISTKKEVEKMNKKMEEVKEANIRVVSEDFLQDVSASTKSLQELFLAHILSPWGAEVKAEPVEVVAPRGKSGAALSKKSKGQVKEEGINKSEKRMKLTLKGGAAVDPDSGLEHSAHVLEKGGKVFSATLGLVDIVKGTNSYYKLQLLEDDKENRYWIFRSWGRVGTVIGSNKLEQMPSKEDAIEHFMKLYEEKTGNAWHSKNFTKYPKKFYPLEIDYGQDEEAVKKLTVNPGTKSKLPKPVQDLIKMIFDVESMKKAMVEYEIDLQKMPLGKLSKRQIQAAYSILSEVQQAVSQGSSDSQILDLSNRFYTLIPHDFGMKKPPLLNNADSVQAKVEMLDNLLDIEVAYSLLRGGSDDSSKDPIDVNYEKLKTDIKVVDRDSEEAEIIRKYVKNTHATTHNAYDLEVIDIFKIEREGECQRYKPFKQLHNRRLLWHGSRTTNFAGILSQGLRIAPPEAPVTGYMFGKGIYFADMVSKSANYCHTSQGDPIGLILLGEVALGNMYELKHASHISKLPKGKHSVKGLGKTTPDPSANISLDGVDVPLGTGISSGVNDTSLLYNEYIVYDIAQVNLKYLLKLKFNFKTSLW

CC(C)C[C@@H](/C=C/[C@H](Cc1ccccc1)C(=O)N1CCC[C@H]1C(=O)N[C@H](C(=O)N[C@@H](CCCNC(=O)OCc1ccccc1)C(=O)NCCCNC(=O)c1cccc2[nH]c([C@]3(C)CCCN3)nc12)C(C)C)NC(=O)OC(C)(C)C [XJB-Veliparib, tert-Butyl ((4S,7S, E)-7-benzyl-2-methyl-8-((S)-2-(((S)-3-methyl-1-(((S)-15-(2-((S)-2-methylpyrrolidin-2-yl)-1H-benzo[d]imidazol-4-yl)-3,9,15-trioxo-1-phenyl-2-oxa-4, 10,14-triazapentadecan-8-yl)amino)-1-oxobutan-2-yl)carbamoyl)pyrrolidin-1-yl)-8-oxooct-5-en-4-yl)carbamate]
PARP1 inhibition compared with untargeted veliparib (PARP1 [1]): similar | cytotoxicity compared with unconjugated veliparib ([2]; P<0.05): significantly less toxic | concentration at which neurotoxicity (defined as >10% cell death) was seen [2]: 10 µM | concentration in mitochondria-enriched fractions [3]: 116±55 pmol/10 μg protein | concentration in nuclear-enriched fractions [3]: 29±27 pmol/10 μg protein | PARP1 inhibitory capacity of mitochondria-enriched fractions compared to unconjugated veliparib (PARP1 [4]): greater PARP1 inhibitory capacity | LDH release after OGD (primary cortical neurons [5]; 10 nM, 2 h OGD, then 24 h, mean±SD, vehicle 38.0±2.5%): 12.4±3.1% | reduction of OGD-induced cell death vs. vehicle (primary cortical neurons [5]; 10 nM, 2 h OGD, then 24 h normal culture): 67% | effect on OGD-induced cell death at low nanomolar concentrations (primary cortical neurons [5]; 2 h OGD, then 24 h): significantly attenuated OGD-induced cell death | protection against OGD at concentrations >100 nM (primary cortical neurons [5]): no additional protection | efficacy vs. veliparib at higher concentrations (HT22 cells; 10 μM, LDH at 24 h): slightly more effective than veliparib | effect on glutamate-induced ferroptosis (HT22 cells): inhibit glutamate-induced ferroptosis | mitochondrial NAD+ stores after OGD (primary cortical neurons [6]): preserve mitochondrial NAD^+ stores | efflux of NAD+ from the mitochondria to the cytosol (primary cortical neurons [6]; 10 nM, 24 h after OGD): prevented efflux of NAD^+ from the mitochondria to the cytosol | mitochondrial architecture after OGD (STED) (primary cortical neurons [7]): partially preserved | PAR immunoreactivity after OGD vs. vehicle (STED) (primary cortical neurons [7]; 1 h): reduced | PAR immunofluorescence after OGD (confocal) (primary cortical neurons [7]): reduction of PAR immunofluorescence | concentration at which radiation damage was decreased [8]: ≥ 5 µM | survival after IR [8]: 90.1% | number of PCR-detectable mtDNA lesions following γ-IR ([9]; DNA extracted 4 and 24 h post-IR, vehicle 0.48±0.03): 0.30±0.03

CC1(c2nc3c(C(N)=O)cccc3[nH]2)CCCN1 (stereo in doubt) [veliparib, 1,2-[(S)-2-methylpyrrolidin-2-yl]-1H-benzimidazole-4-carboxamide, reference compound]
concentration at which neurotoxicity (defined as >10% cell death) was seen [2]: 1 µM | protection against OGD at concentrations >100 nM (primary cortical neurons [5]): no additional protection | effect on glutamate-induced ferroptosis (HT22 cells): inhibit glutamate-induced ferroptosis | mitochondrial NAD+ stores after OGD (primary cortical neurons [6]): preserve mitochondrial NAD^+ stores | PAR immunofluorescence after OGD (confocal) (primary cortical neurons [7]): reduction of PAR immunofluorescence | survival after IR [8]: 57.1% | effect on mtDNA lesions compared to vehicle irradiated cells [9]: no effect
